Measurements: US20220177538A1, “CO-AGONISTS AT GLP-1 AND GIP RECEPTORS SUITABLE FOR ORAL DELIVERY” (Novo Nordisk A/S, priority 2020, published 2022)
Where two headings read alike, the source gives them in different places. Starred links: 1 amine or outer side, 2 acyl side, 3 side chain; linkers in the order of their positions; H or OH if unused. Non-standard residues stand in square brackets, D forms with d. Residues, ends and D or L forms follow the SMILES beside them. Groups on a side chain read outwards from the residue. *: point of attachment. C18 diacid = O=C(O)CCCCCCCCCCCCCCCCC(=O)*; γGlu = O=C(O)[C@H](CCC(=O)[*:2])N[*:1]; εLys = N[C@@H](CCCCN[*:1])C(=O)[*:2]; AEEA = NCCOCCOCC(=O)O; Aib = CC(C)(N)C(=O)O

Assays:
[1] = biological target: human GLP-1 receptor (Homo sapiens, UniProt P43220); experiment: In vitro functional potency, CRE luciferase reporter, whole BHK cells (hGLP-1R); format: cell-based; set-up: expressed in transfected cells; host or cells: BHK (parent line BHKTS13), clone BHK CRE luc2P hGLP-1R; details: BHK CRE luc2P hGLP-1R cells
Procedure, shortened: (§1)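 BHK CRE luc2P cells stably expressing hGIPR or hGLP-1R were seeded at 5000 cells/well overnight. They were treated 3 h at 37° C with a 12-point, 3.5-fold compound series in buffer with or without HSA, and luciferase luminescence was read. Values come from log(agonist)-response regression, averaging at least two replicates.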

[2] = biological target: T1, human GIP receptor (Homo sapiens, UniProt P48546); experiment: In vitro functional potency, CRE luciferase reporter, whole BHK cells (hGIPR); format: cell-based; details: BHK CRE luc2P hGIPR cells
T1 construct: expressed in transfected cells; host or cells: BHK (parent line BHKTS13), clone BHK CRE luc2P hGIPR
T1 sequence (P48546 22-466): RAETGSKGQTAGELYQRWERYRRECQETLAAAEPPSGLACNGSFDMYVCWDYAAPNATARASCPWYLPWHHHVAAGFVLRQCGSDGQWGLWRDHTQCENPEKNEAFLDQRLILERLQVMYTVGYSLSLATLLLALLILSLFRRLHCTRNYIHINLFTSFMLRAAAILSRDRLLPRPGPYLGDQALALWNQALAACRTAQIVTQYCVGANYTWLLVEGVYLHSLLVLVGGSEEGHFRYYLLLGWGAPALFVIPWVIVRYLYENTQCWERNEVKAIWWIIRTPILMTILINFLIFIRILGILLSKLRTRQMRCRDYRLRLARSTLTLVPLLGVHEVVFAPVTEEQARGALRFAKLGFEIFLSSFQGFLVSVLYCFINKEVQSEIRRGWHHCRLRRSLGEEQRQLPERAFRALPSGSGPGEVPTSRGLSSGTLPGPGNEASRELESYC
Procedure, shortened: as §1

[3] = 0% HSA, read-out: hGLP-1R, CRE Luc 0% HSA EC50
[4] = hGLP-1R, CRE Luc 1% HSA EC50, 1% HSA
[5] = 0% HSA, read-out: hGIPR, CRE Luc 0% HSA EC50
[6] = hGIPR, CRE Luc 1% HSA EC50, 1% HSA

human GLP-1 receptor, sequence (P43220 24-463): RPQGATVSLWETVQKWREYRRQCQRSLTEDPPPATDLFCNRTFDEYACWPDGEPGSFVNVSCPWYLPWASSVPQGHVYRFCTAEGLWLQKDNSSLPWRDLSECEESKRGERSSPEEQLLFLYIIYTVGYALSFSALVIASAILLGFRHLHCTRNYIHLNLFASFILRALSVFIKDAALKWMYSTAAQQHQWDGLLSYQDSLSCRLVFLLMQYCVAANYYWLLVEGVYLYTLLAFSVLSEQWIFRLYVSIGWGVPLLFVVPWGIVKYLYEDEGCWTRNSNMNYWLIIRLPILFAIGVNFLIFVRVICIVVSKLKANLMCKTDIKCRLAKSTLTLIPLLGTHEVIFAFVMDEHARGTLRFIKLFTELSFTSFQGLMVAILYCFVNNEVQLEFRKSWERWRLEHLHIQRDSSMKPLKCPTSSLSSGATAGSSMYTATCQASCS

CC(C)C[C@H](NC(=O)[C@H](CC(C)C)NC(=O)[C@H](Cc1c[nH]c2ccccc12)NC(=O)[C@H](CC(N)=O)NC(=O)[C@@H](NC(=O)[C@H](Cc1ccccc1)NC(=O)[C@H](CCC(=O)O)NC(=O)[C@H](CCC(N)=O)NC(=O)[C@H](C)NC(=O)[C@H](C)NC(=O)[C@H](CCC(N)=O)NC(=O)[C@H](CCCCNC(=O)[C@@H](N)CCCCNC(=O)[C@@H](N)CCCCNC(=O)CC[C@H](NC(=O)CCCCCCCCCCCCCCCCC(=O)O)C(=O)O)NC(=O)[C@H](CCC(=O)O)NC(=O)[C@H](CC(C)C)NC(=O)[C@H](Cc1ccc(O)cc1)NC(=O)[C@H](Cc1ccc(O)cc1)NC(=O)[C@H](CO)NC(=O)[C@H](Cc1ccc(O)cc1)NC(=O)[C@H](CC(=O)O)NC(=O)[C@H](CO)NC(=O)[C@@H](NC(=O)[C@H](Cc1ccccc1)NC(=O)[C@@H](NC(=O)CNC(=O)[C@H](CCC(=O)O)NC(=O)C(C)(C)NC(=O)[C@@H](N)Cc1ccc(O)cc1)[C@@H](C)O)[C@@H](C)O)C(C)C)C(=O)N[C@@H](C)C(=O)NCC(=O)NCC(=O)N1CCC[C@H]1C(=O)N[C@@H](CO)C(=O)N[C@@H](CO)C(=O)NCC(=O)N[C@@H](C)C(=O)N1CCC[C@H]1C(=O)N1CCC[C@H]1C(=O)N1CCC[C@H]1C(=O)N[C@@H](CO)C(N)=O [Compound 3] (H-Y[Aib]EGTFTSDYSYYLEK([εLys-εLys-γGlu-C18 diacid])QAAQEFVNWLLAGGPSSGAPPPS-NH2)
EC50 [1, 3]: 0.0085 nM | EC50 [1, 4]: 0.626 nM | EC50 [2, 5]: 0.0069 nM | EC50 [2, 6]: 0.229 nM

CC[C@H](C)[C@H](NC(=O)[C@H](Cc1ccccc1)NC(=O)[C@H](CCC(=O)O)NC(=O)[C@H](CCCNC(=N)N)NC(=O)[C@H](C)NC(=O)[C@H](C)NC(=O)[C@H](CCC(N)=O)NC(=O)[C@H](CCCCNC(=O)[C@@H](N)CCCCNC(=O)[C@@H](N)CCCCNC(=O)CC[C@H](NC(=O)CCCCCCCCCCCCCCCCC(=O)O)C(=O)O)NC(=O)[C@H](CCC(=O)O)NC(=O)[C@H](CC(C)C)NC(=O)[C@H](CC(C)C)NC(=O)[C@@H](NC(=O)[C@H](CO)NC(=O)[C@H](Cc1ccc(O)cc1)NC(=O)[C@H](CC(=O)O)NC(=O)[C@H](CO)NC(=O)[C@@H](NC(=O)[C@H](Cc1ccccc1)NC(=O)[C@@H](NC(=O)CNC(=O)[C@H](CCC(=O)O)NC(=O)C(C)(C)NC(=O)[C@@H](N)Cc1ccc(O)cc1)[C@@H](C)O)[C@@H](C)O)[C@@H](C)CC)C(=O)N[C@@H](CC(N)=O)C(=O)N[C@@H](Cc1c[nH]c2ccccc12)C(=O)N[C@@H](CC(C)C)C(=O)N[C@@H](CC(C)C)C(=O)N[C@@H](C)C(=O)NCC(=O)NCC(=O)N1CCC[C@H]1C(=O)N[C@@H](CO)C(=O)N[C@@H](CO)C(=O)NCC(=O)N[C@@H](C)C(=O)O [Compound 21] (H-Y[Aib]EGTFTSDYSILLEK([εLys-εLys-γGlu-C18 diacid])QAAREFINWLLAGGPSSGA-OH)
EC50 ([1]; hGLP-1R, CRE Luc 0% HSA EC50, 0% HSA): 0.0057 nM | EC50 [1, 4]: 0.118 nM | EC50 ([2]; hGIPR, CRE Luc 0% HSA EC50, 0% HSA): 0.0054 nM | EC50 [2, 6]: 0.131 nM

CC[C@H](C)[C@H](NC(=O)[C@H](Cc1ccccc1)NC(=O)[C@H](CCCCNC(=O)[C@@H](N)CCCCNC(=O)[C@@H](N)CCCCNC(=O)CC[C@H](NC(=O)CCCCCCCCCCCCCCCCC(=O)O)C(=O)O)NC(=O)[C@H](CCCNC(=N)N)NC(=O)[C@H](C)NC(=O)[C@H](C)NC(=O)[C@H](CCC(N)=O)NC(=O)[C@H](CCC(=O)O)NC(=O)[C@H](CCC(=O)O)NC(=O)[C@H](CC(C)C)NC(=O)[C@H](CC(C)C)NC(=O)[C@@H](NC(=O)[C@H](CO)NC(=O)[C@H](Cc1ccc(O)cc1)NC(=O)[C@H](CC(=O)O)NC(=O)[C@H](CO)NC(=O)[C@@H](NC(=O)[C@H](Cc1ccccc1)NC(=O)[C@@H](NC(=O)CNC(=O)[C@H](CCC(=O)O)NC(=O)C(C)(C)NC(=O)[C@@H](N)Cc1ccc(O)cc1)[C@@H](C)O)[C@@H](C)O)[C@@H](C)CC)C(=O)N[C@@H](CC(N)=O)C(=O)N[C@@H](Cc1c[nH]c2ccccc12)C(=O)N[C@@H](CC(C)C)C(=O)N[C@@H](CC(C)C)C(=O)N[C@@H](C)C(=O)NCC(=O)NCC(=O)N1CCC[C@H]1C(=O)N[C@@H](CO)C(=O)N[C@@H](CO)C(=O)NCC(=O)N[C@@H](C)C(=O)N1CCC[C@H]1C(=O)N1CCC[C@H]1C(=O)N1CCC[C@H]1C(=O)N[C@@H](CO)C(=O)O [Compound 39] (H-Y[Aib]EGTFTSDYSILLEEQAARK([εLys-εLys-γGlu-C18 diacid])FINWLLAGGPSSGAPPPS-OH)
EC50 [1, 3]: 0.0082 nM | EC50 [1, 4]: 0.135 nM | EC50 [2, 5]: 0.0284 nM | EC50 [2, 6]: 0.365 nM

CC[C@H](C)[C@H](NC(=O)[C@H](Cc1ccccc1)NC(=O)[C@H](CCC(=O)O)NC(=O)[C@H](CCCNC(=N)N)NC(=O)[C@H](C)NC(=O)[C@H](C)NC(=O)[C@H](CCC(N)=O)NC(=O)[C@H](CCC(=O)O)NC(=O)[C@H](CCC(=O)O)NC(=O)[C@H](CC(C)C)NC(=O)[C@H](Cc1ccc(O)cc1)NC(=O)[C@H](CCCCNC(=O)[C@@H](N)CCCCNC(=O)[C@@H](N)CCCCNC(=O)CC[C@H](NC(=O)CCCCCCCCCCCCCCCCC(=O)O)C(=O)O)NC(=O)[C@H](CO)NC(=O)[C@H](Cc1ccc(O)cc1)NC(=O)[C@H](CC(=O)O)NC(=O)[C@H](CO)NC(=O)[C@@H](NC(=O)[C@H](Cc1ccccc1)NC(=O)[C@@H](NC(=O)CNC(=O)[C@H](CCC(=O)O)NC(=O)C(C)(C)NC(=O)[C@@H](N)Cc1ccc(O)cc1)[C@@H](C)O)[C@@H](C)O)C(=O)N[C@@H](CC(N)=O)C(=O)N[C@@H](Cc1c[nH]c2ccccc12)C(=O)N[C@@H](CC(C)C)C(=O)N[C@@H](CC(C)C)C(=O)N[C@@H](C)C(=O)NCC(=O)NCC(=O)N1CCC[C@H]1C(=O)N[C@@H](CO)C(=O)N[C@@H](CO)C(=O)NCC(=O)N[C@@H](C)C(=O)N1CCC[C@H]1C(=O)N1CCC[C@H]1C(=O)N1CCC[C@H]1C(=O)N[C@@H](CO)C(=O)O [Compound 41]
EC50 [1, 3]: 0.0012 nM | EC50 [1, 4]: 0.0314 nM | EC50 [2, 5]: 0.0049 nM | EC50 [2, 6]: 0.0793 nM

CC[C@H](C)[C@H](NC(=O)[C@H](Cc1ccccc1)NC(=O)[C@H](CCCCNC(=O)[C@@H](N)CCCCNC(=O)[C@@H](N)CCCCNC(=O)CC[C@H](NC(=O)CCCCCCCCCCCCCCCCC(=O)O)C(=O)O)NC(=O)[C@H](CCCNC(=N)N)NC(=O)[C@H](C)NC(=O)[C@H](C)NC(=O)[C@H](CCC(N)=O)NC(=O)[C@H](CCC(=O)O)NC(=O)[C@H](CCC(=O)O)NC(=O)[C@H](CC(C)C)NC(=O)[C@H](Cc1ccc(O)cc1)NC(=O)[C@@H](NC(=O)[C@H](CO)NC(=O)[C@H](Cc1ccc(O)cc1)NC(=O)[C@H](CC(=O)O)NC(=O)[C@H](CO)NC(=O)[C@@H](NC(=O)[C@H](Cc1ccccc1)NC(=O)[C@@H](NC(=O)CNC(=O)[C@H](CCC(=O)O)NC(=O)C(C)(C)NC(=O)[C@@H](N)Cc1ccc(O)cc1)[C@@H](C)O)[C@@H](C)O)[C@@H](C)CC)C(=O)N[C@@H](CC(N)=O)C(=O)N[C@@H](Cc1c[nH]c2ccccc12)C(=O)N[C@@H](CC(C)C)C(=O)N[C@@H](CC(C)C)C(=O)N[C@@H](C)C(=O)NCC(=O)NCC(=O)N1CCC[C@H]1C(=O)N[C@@H](CO)C(=O)N[C@@H](CO)C(=O)NCC(=O)N[C@@H](C)C(=O)N1CCC[C@H]1C(=O)N1CCC[C@H]1C(=O)N1CCC[C@H]1C(=O)N[C@@H](CO)C(=O)O [Compound 37] (H-Y[Aib]EGTFTSDYSIYLEEQAARK([εLys-εLys-γGlu-C18 diacid])FINWLLAGGPSSGAPPPS-OH)
EC50 [1, 3]: 0.0027 nM | EC50 [1, 4]: 0.0946 nM | EC50 [2, 5]: 0.0112 nM | EC50 [2, 6]: 0.298 nM

CC[C@H](C)[C@H](NC(=O)[C@H](Cc1ccccc1)NC(=O)[C@H](CCC(=O)O)NC(=O)[C@H](CCCNC(=N)N)NC(=O)[C@H](C)NC(=O)[C@H](C)NC(=O)[C@H](CCC(N)=O)NC(=O)[C@H](CCCCNC(=O)COCCOCCNC(=O)COCCOCCNC(=O)CC[C@H](NC(=O)CCCCCCCCCCCCCCCCC(=O)O)C(=O)O)NC(=O)[C@H](CCC(=O)O)NC(=O)[C@H](CC(C)C)NC(=O)[C@@H](NC(=O)[C@@H](NC(=O)[C@H](CO)NC(=O)[C@H](Cc1ccc(O)cc1)NC(=O)[C@H](CC(=O)O)NC(=O)[C@H](CO)NC(=O)[C@@H](NC(=O)[C@H](Cc1ccccc1)NC(=O)[C@@H](NC(=O)CNC(=O)[C@H](CCC(=O)O)NC(=O)C(C)(C)NC(=O)[C@@H](N)Cc1ccc(O)cc1)[C@@H](C)O)[C@@H](C)O)[C@@H](C)CC)[C@@H](C)CC)C(=O)N[C@@H](CC(N)=O)C(=O)N[C@@H](Cc1c[nH]c2ccccc12)C(=O)N[C@@H](CC(C)C)C(=O)N[C@@H](CC(C)C)C(=O)N[C@@H](C)C(=O)NCC(=O)NCC(=O)N1CCC[C@H]1C(=O)N[C@@H](CO)C(=O)N[C@@H](CO)C(=O)NCC(=O)N[C@@H](C)C(=O)N1CCC[C@H]1C(=O)N1CCC[C@H]1C(=O)N1CCC[C@H]1C(=O)N[C@@H](CO)C(=O)O [Compound 36] (H-Y[Aib]EGTFTSDYSIILEK([AEEA-AEEA-γGlu-C18 diacid])QAAREFINWLLAGGPSSGAPPPS-OH)
EC50 [1, 3]: 0.0047 nM | EC50 [1, 4]: 0.414 nM | EC50 [2, 5]: 0.0055 nM | EC50 [2, 6]: 0.356 nM
